From patent US6660724B1, “Compounds and pharmaceutical compositions containing them” (Ilex Products, Inc., priority 1995, dated 2003)

Columns and labels:
[1] = tested on: Lp(a); conditions: man, reported in the literature; cited from earlier work
[2] = high doses necessary for efficacy (4 g/day); cited from earlier work

melting point [°C] | Compound | effect on Lp(a) levels [1] | serious side-effects [2]
– | CC[C@H](C)C(=O)O[C@H]1C[C@@H](C)C=C2C=C[C@H](C)[C@H](CC[C@@H]3C[C@@H](O)CC(=O)O3)[C@H]21 [lovastatin] | do not affect Lp(a) levels | –
124 to 126 | CCOP(=O)(CNCc1ccnc(-c2cc(OC)c(O)c(OC)c2)c1)OCC | – | –
99 to 101 | CCOP(=O)(CNCc1cccnc1-c1cc(OC)c(O)c(OC)c1)OCC | – | –
– | O=C(O)c1cccnc1 [nicotinic acid] | lower Lp(a) | flushing, vasodilation and hepatotoxicity
– | CC(C)(Sc1cc(C(C)(C)C)c(O)c(C(C)(C)C)c1)Sc1cc(C(C)(C)C)c(O)c(C(C)(C)C)c1 [probucol] | equally ineffective | –
